Marks after values point to notes of the source that are not given here.
What was measured:
[1] = system: Male albino Sprague-Dawley rats; experiment: Rat Social Interaction Test (SIT); format: in vivo; conditions: 5 mg/kg i.p., 1 hour prior to testing
Procedure: Rats were allowed to acclimate to the animal care facility for 5 days and were housed singly for 5 days prior to testing. Animals were handled for 5 minutes per day. The design and procedure for the Social Interaction Test was carried out as previously described by Kennett, et al. (1997). On the test day, weight matched pairs of rats (± 5%), unfamiliar to each other, were given identical treatments and returned to their home cages. Animals were randomly divided into 5 treatment groups, with 5 pairs per group, and were given one of the following i.p. treatments: Example 92 (10, 30 or 100 mg/kg), vehicle (1 ml/kg) or chlordiazepoxide (5 mg/kg). Dosing was 1 hour prior to testing. Rats were subsequently placed in a white perspex test box or arena (54 x 37 x 26 cm), whose floor was divided up into 24 equal squares, for 15 minutes. An air conditioner was used to generate background noise and to keep the room at approximately 74°F. All sessions were videotaped using a JVC camcorder (model GR-SZ1, Elmwood Park, NJ) with either TDK (HG ultimate brand) or Sony 30 minute videocassettes. All sessions were conducted between 1:00 - 4:30 P.M. Active social interaction, defined as grooming, sniffing, biting, boxing, wrestling, following and crawling over or under, was scored using a stopwatch (Sportsline model no. 226, 1/100 sec. discriminability). The number of episodes of rearing (animal completely raises up its body on its hind limbs), grooming (licking, biting, scratching of body), and face washing (i.e. hands are moved repeatedly over face), and number of squares crossed were scored. Passive social interaction (animals are lying beside or on top of each other) was not scored. All behaviors were assessed later by an observer who was blind as to the treatment of each pair. At the end of each test, the box was thoroughly wiped with moistened paper towels.
Male albino Sprague-Dawley rats (Taconic Farms, NY) were housed in pairs under a 12 hr light dark cycle (lights on at 0700 hrs.) with free access to food and water.
Example 92 was dissolved in 100% DMSO (Sigma Chemical Co., St. Louis, MO). Chlordiazepoxide (purchased from Sigma Chemical Co., St. Louis, MO) was dissolved in double distilled water. The vehicle consisted of 50% DMSO (v/v). All drug solutions were made up 10 minutes prior to injection and the solutions were discarded.
Example 34 was dissolved in 5% lactic acid, v/v. The vehicle consisted of 100% dimethylacetamide (DMA) and this was used to make up all drug solutions. All drug solutions were made up fresh each day and any unused solutions were discarded at the end of the test day. The volume of drug solution administered was 1 ml/kg.
The social interaction data (time interacting, rearing and squares crossed) were subjected to a randomized, one-way ANOVA and post hoc tests conducted using the Student-Newman-Keuls test. The data were subjected to a test of normality (Shapiro-Wilk test). The data were analyzed using the GBSTAT program, version 6.5 (Dynamics Microsystems, Inc., Silver Spring, MD, 1997). All data are presented as means ± S.E.M.

[2] = system: Male albino Sprague-Dawley rats; experiment: Rat Social Interaction Test (SIT); format: in vivo
[3] = 5 mg/kg p.o., one hour before test

CNC1=Nc2ccc(Cl)cc2C(c2ccccc2)=[N+]([O-])C1 [Chlordiazepoxide, chlordiazepoxide, reference compound]
Grooming bouts [1]: 7.3 ± 1.3 | Squares Crossed [1]: 287 ± 28 | Rearings ([2]; 5 mg/kg i.p., 1 hour prior to testing): 30 ± 2 | Social Interaction ([2]; 5 mg/kg i.p., 1 hour prior to testing, unfamiliar rats, 15 minute test): 188 ± 15^b sec | Grooming bouts [2, 3]: 5.3 ± 0.7 | Rearing [2, 3]: 35 ± 2 | Squares Crossed [2, 3]: 265 ± 30 | Social Interaction ([2]; 5 mg/kg p.o., one hour before test, unfamiliar cage mates in a familiar arena): 122 ± 18^S sec

Source: patent EP2140864A2 (H. Lundbeck A/S, priority 2001, dated 2002)
